Like-named read-outs stand apart in the source and are kept apart here. Bridge positions count the residues as written; N and C are the ends. Square brackets hold non-standard residues; d marks the D form. Peptide text beside a SMILES is read from it. AEEA = NCCOCCOCC(=O)O

The target in one data set is T1, human GLP-1 R (Homo sapiens, UniProt P43220).
T1 construct: expressed in transfected cells
The data set can be described thus: Human GLP-1 receptor efficacy assay (cAMP induction, FlashPlate). The following applies: read-out: hGLP-1 R EC50. The format is cell-based. As to the method: On the day of analysis, growth medium was removed and the cells were washed once with 200 μl Tyrode buffer [Tyrode's Salts (9.6 g/l), 10 mM HEPES, pH 7.4]. […] The reaction was stopped by addition of 25 μl 0.5 M HCl and incubated on ice for 60 min.

The nature of a further data set: in vivo. More on the design: species or system C57Bl mice. To be noted: mouse, sc, 100 nmol/kg; for half-life: C57Bl. Here is the method: Two C57Bl mice were given a single subcutaneous dose of 100 nmol/kg of each peptide. […] At each time point, samples from two mice were taken. Plasma samples were analyzed after solid phase extraction (SPE) by liquid chromatography mass spectrometry (LC-MS/MS).

The next data set has as its target T2, human CCK-B R (Homo sapiens, UniProt P32239).
T2 construct: expressed in transfected cells
T2 sequence (P32239 1-447): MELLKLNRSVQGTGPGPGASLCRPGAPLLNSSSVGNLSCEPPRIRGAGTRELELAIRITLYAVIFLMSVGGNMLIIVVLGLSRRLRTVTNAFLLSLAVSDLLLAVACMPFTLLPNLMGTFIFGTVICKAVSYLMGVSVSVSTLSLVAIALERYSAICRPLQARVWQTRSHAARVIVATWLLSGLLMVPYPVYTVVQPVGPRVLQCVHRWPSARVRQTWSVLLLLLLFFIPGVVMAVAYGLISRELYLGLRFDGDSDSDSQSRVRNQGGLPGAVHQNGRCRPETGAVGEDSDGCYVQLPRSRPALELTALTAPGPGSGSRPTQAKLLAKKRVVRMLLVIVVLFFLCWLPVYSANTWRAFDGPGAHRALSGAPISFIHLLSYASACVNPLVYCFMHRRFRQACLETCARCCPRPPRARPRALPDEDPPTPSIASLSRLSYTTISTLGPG
In words: Human CCK-B receptor efficacy assay (AlphaScreen SureFire p-ERK). The format is cell-based. The following applies: Table 1; HEK293 cells expressing human CCK-B R, p-ERK; read-out: hCCK-B R EC50. (In general: In Alpha technology, singlet oxygen from a donor bead excites a nearby acceptor bead.)

The target in a further data set is T3, mouse CCK-B R (Mus musculus, UniProt P56481).
T3 construct: expressed in transfected cells
T3 sequence (P56481 1-453): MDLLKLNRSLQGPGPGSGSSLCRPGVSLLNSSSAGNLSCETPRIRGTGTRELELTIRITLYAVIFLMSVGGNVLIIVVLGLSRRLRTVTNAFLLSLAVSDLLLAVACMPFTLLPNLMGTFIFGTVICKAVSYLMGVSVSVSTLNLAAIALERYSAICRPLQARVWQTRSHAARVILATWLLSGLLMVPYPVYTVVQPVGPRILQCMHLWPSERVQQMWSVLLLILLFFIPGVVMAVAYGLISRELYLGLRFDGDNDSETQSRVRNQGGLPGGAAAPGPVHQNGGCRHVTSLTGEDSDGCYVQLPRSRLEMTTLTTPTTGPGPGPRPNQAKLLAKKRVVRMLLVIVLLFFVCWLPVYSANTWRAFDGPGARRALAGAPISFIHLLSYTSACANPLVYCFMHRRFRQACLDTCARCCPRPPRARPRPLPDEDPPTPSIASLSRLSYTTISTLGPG
In words: Mouse CCK-B receptor efficacy assay (AlphaScreen SureFire p-ERK). The format is cell-based. To be noted: Table 1; HEK293 cells expressing mouse CCK-B R, p-ERK; read-out: mCCK-B R EC50. From the text:
CCK-B Receptor (CCK-B R) Efficacy Assay:
To test binding and activation of CCK-B R we produced stable cell lines expressing one of the human or mouse CCK receptors in a manner similar to that for production of the hGLP-1 R cell lines were generated (vide supra). In brief, we used HEK293 cells for transfection of the cDNA for human or mouse CCK-A R or CCK-B R [hCCK-A R (gene identity: L19315), hCCK-B R (NM_176875), mCCK-A R (NM_009827) and mCCK-B R (NM_007627)] all cloned into the transfection plasmid pIRESneo2dNGFR. The cells were grown according to standard protocol in growth medium and transfected with the plasmids using Lipofectamin (Invitrogen). The cells stably expressing CCK receptors were selected using G418 in the growth medium (only cells that have taken up and incorporated the cDNA expression plasmid survive) and propagated. Stocks of cells were frozen for later use.
In vitro effects of peptide conjugates of the invention were estimated by measuring p-ERK (using the AlphaScreen™ SureFire p-ERK assay) in HEK293 cells stably expressing the human and mouse CCK-B R (high-affinity Gastrin receptor), respectively. The Gastrin receptor efficacy assays (AlphaScreen™ SureFire p-ERK assay) were performed as follows:
The CCK-B R expressing cells in question were seeded at 20,000 cells/well in 100 μl growth medium [DMEM, 10% FCS, Penicillin (100 IU/ml), Streptomycin (100 μg/ml)] in a 96-well plate coated with poly-D-lysine. The cells were incubated in an incubator (37° C., 5% […]) for two days.
The growth medium was changed to 80 μl of serum-free medium [DMEM, Penicillin (100 IU/ml), Streptomycin (100 μg/ml)] per well, and incubation of the cells was continued for 19 hours in the incubator (37° C., 5% CO2).
• 1. After 19 hours, 20 μl of serum-free medium containing one of 5 different concentrations of peptide conjugate was added (performed in triplicate for each concentration), and the cells were incubated for 5 min. at room temperature. • 2. The stimulation medium was discarded by quickly turning the plate upside down, and 60 μl 1× lysis buffer (from the SureFire assay kit) was added per well. • 3. The plate was shaken on a plate-shaker for 5 min and then placed on ice. • 4. SureFire P-ERK assay: 4 μl of each supernatant was transferred to a 384 well proxiplate (Perkin Elmer). • 5. 4 μl of each of the two control lysates (unstimulated and stimulated) were added to the proxiplate in duplicate. • 6. […] 7 μl of the latter reaction buffer+activation buffer+beads per well were added in the proxiplate, the mix being resuspended carefully before addition to the wells. • 7. The plate was incubated for 2 hours in a dark box in a 22° C. incubator. • 8. The plate was analyzed on an Envision™ light-emission plate reader (Perkin-Elmer) using the appropriate reading program (Perkin-Elmer).

Where [1] appears, read: Table 1, HEK293 cells expressing human GLP-1 R, cAMP.

T1 sequence (P43220 24-463): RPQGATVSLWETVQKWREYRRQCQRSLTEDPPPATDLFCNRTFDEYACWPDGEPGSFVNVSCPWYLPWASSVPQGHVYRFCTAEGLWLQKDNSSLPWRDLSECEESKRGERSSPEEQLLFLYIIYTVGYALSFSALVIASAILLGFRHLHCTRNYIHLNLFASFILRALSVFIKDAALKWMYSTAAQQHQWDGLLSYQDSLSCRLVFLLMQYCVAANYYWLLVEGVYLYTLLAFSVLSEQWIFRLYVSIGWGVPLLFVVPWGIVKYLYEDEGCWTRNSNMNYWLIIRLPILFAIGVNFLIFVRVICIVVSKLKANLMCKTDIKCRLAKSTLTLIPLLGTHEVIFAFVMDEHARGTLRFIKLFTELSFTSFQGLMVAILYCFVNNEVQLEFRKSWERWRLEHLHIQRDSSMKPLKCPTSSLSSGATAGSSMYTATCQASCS

By EC50 is commonly meant the concentration giving half of the maximal effect. As usually defined, the half-life is the time in which the quantity being followed falls by half. High values mean slow decline, low ones rapid decline. In the case of `CC[C@H](C)[C@H](NC(=O)[C@H](Cc1ccccc1)NC(=O)[C@H](CC(C)C)NC(=O)[C@H](CCCNC(=N)N)NC(=O)[C@@H](NC(=O)[C@H](C)NC(=O)[C@H](CCC(=O)O)NC(=O)[C@H](CCC(=O)O)NC(=O)[C@H](CCC(=O)O)NC(=O)[C@H](CC(C)C)NC(=O)[C@H](Cc1ccc(O)cc1)NC(=O)[C@H](CCCCN)NC(=O)[C@H](CO)NC(=O)[C@H](CC(C)C)NC(=O)[C@H](CC(=O)O)NC(=O)[C@H](CO)NC(=O)[C@@H](NC(=O)[C@H](Cc1ccccc1)NC(=O)[C@@H](NC(=O)CNC(=O)[C@H](CCC(=O)O)NC(=O)CNC(=O)[C@@H](N)Cc1c[nH]cn1)[C@@H](C)O)[C@@H](C)O)C(C)C)C(=O)N[C@@H](CCC(=O)O)C(=O)N[C@@H](Cc1ccccc1)C(=O)N[C@@H](CC(C)C)C(=O)N[C@@H](CCCCN)C(=O)NCCOCCOCC(=O)NCCOCCOCC(=O)N[C@@H](Cc1ccc(O)cc1)C(=O)NCC(=O)N[C@@H](Cc1c[nH]c2ccccc12)C(=O)N[C@@H](CC(C)C)C(=O)N[C@@H](CC(=O)O)C(=O)N[C@@H](Cc1ccccc1)C(N)=O` [Compound 77, [Tyr13,Leu14,Phe25]Exendin-4(1-27)-Peg3-Peg3-[Leu4]Gastrin6] (H-HGEGTFTSDLSKYLEEEAVRLFIEFLK[AEEA][AEEA]YGWLDF-NH2), on human GLP-1 R (Table 2), the EC50 was determined as 0.044 nM. For the same compound, in the data set “in vivo”, the half-life was 3.1 h; the “Half-life and exposure (in words)” value was “superior to the rest”.

As to `CC[C@H](C)[C@H](NC(=O)[C@H](Cc1ccccc1)NC(=O)[C@H](CC(C)C)NC(=O)[C@@H]1CCCCNC(=O)CC[C@H](NC(=O)[C@H](CCC(=O)O)NC(=O)[C@H](CCSC)NC(=O)[C@H](CCC(N)=O)NC(=O)[C@H](CCCCN)NC(=O)[C@H](CO)NC(=O)[C@H](CC(C)C)NC(=O)[C@H](CC(=O)O)NC(=O)[C@H](CO)NC(=O)[C@@H](NC(=O)[C@H](Cc2ccccc2)NC(=O)[C@@H](NC(=O)CNC(=O)[C@H](CCC(=O)O)NC(=O)CNC(=O)[C@@H](N)Cc2c[nH]cn2)[C@@H](C)O)[C@@H](C)O)C(=O)N[C@@H](CCC(=O)O)C(=O)N[C@@H](C)C(=O)N[C@@H](C(C)C)C(=O)N1)C(=O)N[C@@H](CCC(=O)O)C(=O)N[C@@H](Cc1c[nH]c2ccccc12)C(=O)N[C@@H](CC(C)C)C(=O)N[C@@H](CCCCN)C(=O)N[C@@H](CC(N)=O)C(=O)NCCOCCOCC(=O)NCCOCCOCC(=O)N[C@@H](Cc1ccc(O)cc1)C(=O)NCC(=O)N[C@@H](Cc1c[nH]c2ccccc12)C(=O)N[C@@H](CC(C)C)C(=O)N[C@@H](CC(=O)O)C(=O)N[C@@H](Cc1ccccc1)C(N)=O` [Compound 79, Side chain-cyclo([Glu16,Lys20]Exendin-4(1-28)-Peg3-Peg3-[Leu4]Gastrin6] (H-HGEGTFTSDLSKQMEEEAVKLFIEWLKN[AEEA][AEEA]YGWLDF-NH2; lactam 16-20), the EC50 at human GLP-1 R (Table 2) is 0.026 nM. The same compound had a half-life in “in vivo” of 1.5 h.

For the compound “H-HAEGTFTSDVSSYLEGQAAKEFIAWLVKGRAAAQGPWLEEEEEAYGWLDF-NH2 [Compound 39, GLP-1(7-36)-AAA-[Gln1,Leu15]Gastrin17]”, the EC50 on human CCK-B R is 18.8 nM; on mouse CCK-B R, 54.1 nM; on human GLP-1 R (setting [1]), 0.114 nM; at human GLP-1 R (Table 3), 0.034 nM.

For the compound “H-HAEGTFTSDVSSYLEGQAAKEFIAWLVKGRKQGPWLEEEEEAYGWLDF-NH2 [Compound 38, GLP-1(7-36)-K-[Gln1,Leu15]Gastrin17]”, the concentration for a half-maximal effect (EC50) stood at 77.3 nM on human CCK-B R, 114 nM at mouse CCK-B R, 0.0842 nM at human GLP-1 R (setting [1]) and 0.03 nM on human GLP-1 R (Table 3).

Take “H-HAEGTFTSDVSSYLEGQAAKEFIAWLVKGRQGPWLEEEEEAYGWLDF-NH2 [Compound 37, GLP-1(7-36)-[Gln1,Leu15]Gastrin17]”: the EC50 was 25.9 nM at human CCK-B R, 73.1 nM at mouse CCK-B R, 0.145 nM at human GLP-1 R (setting [1]) and 0.03 nM on human GLP-1 R (Table 3).

For “H-HAEGTFTSDVSSYLEGQAAKEFIAWLVKGRSKKQGPWLEEEEEAYGWLDF-NH2 [Compound 40, GLP-1(7-36)-SKK-[Gln1,Leu15]Gastrin17]”, the EC50 on human CCK-B R came out at 15.6 nM; on mouse CCK-B R it was 58.6 nM; at human GLP-1 R (setting [1]), 0.116 nM; on human GLP-1 R (Table 3) it was 0.031 nM.

Turning to `CC[C@H](C)[C@H](NC(=O)[C@H](Cc1ccccc1)NC(=O)[C@H](CCC(=O)O)NC(=O)[C@H](CCCCN)NC(=O)[C@H](C)NC(=O)[C@H](C)NC(=O)[C@H](CCC(N)=O)NC(=O)CNC(=O)[C@H](CCC(=O)O)NC(=O)[C@H](CC(C)C)NC(=O)[C@H](Cc1ccc(O)cc1)NC(=O)[C@H](CO)NC(=O)[C@H](CO)NC(=O)[C@@H](NC(=O)[C@H](CC(=O)O)NC(=O)[C@H](CO)NC(=O)[C@@H](NC(=O)[C@H](Cc1ccccc1)NC(=O)[C@@H](NC(=O)CNC(=O)[C@H](CCC(=O)O)NC(=O)[C@H](C)NC(=O)[C@@H](N)Cc1c[nH]cn1)[C@@H](C)O)[C@@H](C)O)C(C)C)C(=O)N[C@@H](C)C(=O)N[C@@H](Cc1c[nH]c2ccccc12)C(=O)N[C@@H](CC(C)C)C(=O)N[C@H](C(=O)N[C@@H](CCCCN)C(=O)NCC(=O)N[C@@H](CCCNC(=N)N)C(=O)NCCCCCCCC(=O)NCCCCCCCC(=O)N[C@@H](CCC(N)=O)C(=O)NCC(=O)N1CCC[C@H]1C(=O)N[C@@H](Cc1c[nH]c2ccccc12)C(=O)N[C@@H](CC(C)C)C(=O)N[C@@H](CCC(=O)O)C(=O)N[C@@H](CCC(=O)O)C(=O)N[C@@H](CCC(=O)O)C(=O)N[C@@H](CCC(=O)O)C(=O)N[C@@H](CCC(=O)O)C(=O)N[C@@H](C)C(=O)N[C@@H](Cc1ccc(O)cc1)C(=O)NCC(=O)N[C@@H](Cc1c[nH]c2ccccc12)C(=O)N[C@@H](CC(C)C)C(=O)N[C@@H](CC(=O)O)C(=O)N[C@@H](Cc1ccccc1)C(N)=O)C(C)C` [Compound 45, GLP-1(7-36)-8Aoc-8Aoc-[Gln1,Leu15]Gastrin17], the EC50 worked out at 12.8 nM on human CCK-B R and 71.4 nM on mouse CCK-B R.

These data come from patent US10406207B2, “Peptide conjugates of GLP-1 receptor agonists and gastrin and their use” (priority 2010, dated 2019).
